{"source": "patent US10526336B2", "about": "“Fused heteroaryl derivatives as orexin receptor antagonists” (Merck Sharp & Dohme Corp., priority 2014, dated 2020)", "data": [{"target": "human orexin-2 receptor (Homo sapiens (Human), UniProt O43614)", "sequence (O43614 whole entry)": "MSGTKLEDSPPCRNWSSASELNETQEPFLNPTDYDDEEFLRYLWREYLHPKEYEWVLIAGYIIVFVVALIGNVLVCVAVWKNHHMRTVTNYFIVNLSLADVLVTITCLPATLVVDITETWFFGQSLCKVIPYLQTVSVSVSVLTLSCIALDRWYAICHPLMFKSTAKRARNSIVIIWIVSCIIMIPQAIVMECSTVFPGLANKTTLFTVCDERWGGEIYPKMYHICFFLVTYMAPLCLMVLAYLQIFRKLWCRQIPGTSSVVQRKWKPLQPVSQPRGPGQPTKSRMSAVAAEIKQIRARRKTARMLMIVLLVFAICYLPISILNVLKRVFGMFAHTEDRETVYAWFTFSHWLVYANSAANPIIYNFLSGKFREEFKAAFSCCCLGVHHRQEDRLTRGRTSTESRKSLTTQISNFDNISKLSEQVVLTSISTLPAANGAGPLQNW", "assay": "FLIPR Ca2+ Flux Assay, orexin-2 receptor antagonism in CHO cells", "type": "cell-based", "settings": "CHO cells expressing the human orexin-2 receptor; agonist 70 pM Ala-6,12 orexin-A; read-out: hOX2 FLIPR IC50", "experimental": "The utility of the compounds in accordance with the present invention as orexin receptor OX1R and/or OX2R antagonists may be readily determined without undue experimentation by methodology well known in the art, including the “FLIPR Ca^2+ Flux Assay” (Okumura et al., Biochem. Biophys. Res. Comm. 280:976-981, 2001). In a typical experiment the OX1 and OX2 receptor antagonistic activity of the compounds of the present invention was determined in accordance with the following experimental method. For intracellular calcium measurements, Chinese hamster ovary (CHO) cells expressing the rat orexin-1 receptor or the human orexin-2 receptor, are grown in Iscove's modified DMEM containing 2 mM L-glutamine, […], 1% hypoxanthine-thymidine supplement, 100 U/ml penicillin, 100 μg/ml streptomycin and 10% heat-inactivated fetal calf serum (FCS). The cells are seeded at 20,000 cells/well into Becton-Dickinson black 384-well clear bottom sterile plates coated with poly-D-lysine. All reagents are from GIBCO-Invitrogen Corp. The seeded plates are incubated overnight at 37° C. and 5% CO2. Ala-6,12 human orexin-A as the agonist is prepared as a 1 mM stock solution in 1% bovine serum albumin (BSA) and diluted in assay buffer (HBSS containing 20 mM HEPES, 0.1% BSA and 2.5 mM probenecid, pH7.4) for use in the assay at a final concentration of 70 pM. Test compounds are prepared as 10 mM stock solution in DMSO, then diluted in 384-well plates, first in DMSO, then assay buffer. On the day of the assay, cells are washed 3 times with 100 μl assay buffer and then incubated for 60 min (37° C., 5% CO2) in 60 μl assay buffer containing […] Fluo-4AM ester, 0.02% pluronic acid, and 1% BSA. The dye loading solution is then aspirated and cells are washed 3 times with 100 μl assay buffer. 30 μl of that same buffer is left in each well. Within the Fluorescent Imaging Plate Reader (FLIPR, Molecular Devices), test compounds are added to the plate in a volume of 25 μl, incubated for 5 min and finally 25 μl of agonist is added. Fluorescence is measured for each well at 1 second intervals for 5 minutes and the height of each fluorescence peak is compared to the height of the fluorescence peak induced by 70 pM Ala-6,12 orexin-A with buffer in place of antagonist. For each antagonist, IC50 value (the concentration of compound needed to inhibit 50% of the agonist response) is determined. Alternatively, compound potency can be assessed by a radioligand binding assay (described in Bergman et. al. Bioorg. Med. Chem. Lett. 2008, 18, 1425-1430) in which the inhibition constant (Ki) is determined in membranes prepared from CHO cells expressing either the OX1 or OX2 receptor. The intrinsic orexin receptor antagonist activity of a compound which may be used in the present invention may be determined by these assays.", "units": {"IC50": "nM"}, "values": [{"smiles": "C[C@@H]1CC[C@@H](Oc2nccn3ccnc23)CN1C(=O)c1ccccc1-n1nccn1", "note": "[Example 1, (2-(2H-1,2,3-triazol-2-yl)phenyl)((2R,5R)-5-(imidazo[1,2-a]pyrazin-8-yloxy)-2-methylpiperidin-1-yl)methanone]", "IC50": 35.8}, {"smiles": "C[C@@H]1CC[C@@H](Oc2nccn3ccnc23)CN1C(=O)c1ccccc1CS(C)(=O)=O", "note": "[Example 2, ((2R,5R)-5-(imidazo[1,2-a]pyrazin-8-yloxy)-2-methylpiperidin-1-yl)(2-((methylsulfonyl)methyl)phenyl)methanone]", "IC50": 59}, {"smiles": "C[C@@H]1CC[C@@H](Oc2nccn3ccnc23)CN1C(=O)c1ccccc1CC(F)(F)F", "note": "[Example 3, ((2R,5R)-5-(imidazo[1,2-α]pyrazin-8-yloxy)-2-methylpiperidin-1-yl)(2-(2,2,2-trifluoroethyl)phenyl)methanone]", "IC50": 50.4}, {"smiles": "CCCc1ccccc1C(=O)N1C[C@H](Oc2nccn3ccnc23)CC[C@H]1C", "note": "[Example 4, ((2R,5R)-5-(imidazo[1,2-a]pyrazin-8-yloxy)-2-methylpiperidin-1-yl)(2-propylphenyl)methanone]", "IC50": 31.9}, {"smiles": "C[C@@H]1CC[C@@H](Sc2nccn3ccnc23)CN1C(=O)c1ccccc1-n1nccn1", "note": "[Example 5, (2-(2H-1,2,3-triazol-2-yl)phenyl)((2R,5R)-5-(imidazo[1,2-a]pyrazin-8-ylthio)-2-methylpiperidin-1-yl)methanone]", "IC50": 10.3}, {"smiles": "Cc1cn2ccnc(O[C@@H]3CC[C@@H](C)N(C(=O)c4ccccc4-n4nccn4)C3)c2n1", "note": "[Example 6, (2-(2H-1,2,3-triazol-2-yl)phenyl)((2R,5R)-2-methyl-5-((2-methylimidazo[1,2-a]pyrazin-8-yl)oxy)piperidin-1-yl)methanone]", "IC50": 8}, {"smiles": "Cc1cn2ccnc(O[C@@H]3CC[C@@H](C)N(C(=O)c4ccsc4-n4nccn4)C3)c2n1", "note": "[Example 7, (2-(2H-1,2,3-triazol-2-yl)thiophen-3-yl)((2R,5R)-2-methyl-5-((2-methylimidazo[1,2-a]pyrazin-8-yl)oxy)piperidin-1-yl)methanone]", "IC50": 27.4}, {"smiles": "Cc1cn2ccnc(O[C@@H]3CC[C@@H](C)N(C(=O)c4cscc4-n4nccn4)C3)c2n1", "note": "[Example 8, (4-(2H-1,2,3-triazol-2-yl)thiophen-3-yl)((2R,5R)-2-methyl-5-((2-methylimidazo[1,2-α]pyrazin-8-yl)oxy)piperidin-1-yl)methanone]", "IC50": 39.1}, {"smiles": "Cc1cn2ccnc(O[C@@H]3CC[C@@H](C)N(C(=O)c4ccccc4C4(C#N)CC4)C3)c2n1", "note": "[Example 9, 1-(2-((2R,5R)-2-methyl-5-((2-methylimidazo[1,2-α]pyrazin-8-yl)oxy)piperidine-1-carbonyl)phenyl)cyclopropanecarbonitrile]", "IC50": 13.2}, {"smiles": "Cc1cn2ccnc(O[C@@H]3CC[C@@H](C)N(C(=O)c4ccc(F)cc4-n4nccn4)C3)c2n1", "note": "[Example 10, (4-fluoro-2-(2H-1,2,3-triazol-2-yl)phenyl)((2R,5R)-2-methyl-5-((2-methylimidazo[1,2-α]pyrazin-8-yl)oxy)piperidin-1-yl)methanone]", "IC50": 31.2}, {"smiles": "Cc1cn2ccnc(O[C@@H]3CC[C@@H](C)N(C(=O)c4ccccc4-n4ncnn4)C3)c2n1", "note": "[Example 11, (2-(2H-tetrazol-2-yl)phenyl)((2R,5R)-2-methyl-5-((2-methylimidazo[1,2-α]pyrazin-8-yl)oxy)piperidin-1-yl)methanone]", "IC50": 22.2}, {"smiles": "Cc1cn2ccnc(O[C@@H]3CC[C@@H](C)N(C(=O)c4ccccc4CS(C)(=O)=O)C3)c2n1", "note": "[Example 12, ((2R,5R)-2-methyl-5-((2-methylimidazo[1,2-α]pyrazin-8-yl)oxy)piperidin-1-yl)(2-((methylsulfonyl)methyl)phenyl)methanone]", "IC50": 46.2}, {"smiles": "Cc1cn2ccnc(O[C@@H]3CC[C@@H](C)N(C(=O)c4cscc4-c4ncccn4)C3)c2n1", "note": "[Example 13, ((2R,5R)-2-methyl-5-((2-methylimidazo[1,2-a]pyrazin-8-yl)oxy)piperidin-1-yl)(4-(pyrimidin-2-yl)thiophen-3-yl)methanone]", "IC50": 63.7}]}]}
